Elimination half-life data for one substance are collected here from patent US8163477B2, “Nuclease-based method for detecting and quantitating oligonucleotides” (Isis Pharmaceuticals, Inc, priority 2000, dated 2012).

The series is described as follows: Plasma concentration after subcutaneous injection in mice (pharmacokinetic profile). To be noted: 50 mg/kg subcutaneous. The series is classed as in vivo. As to the method: FIG. 5 is a graph showing the pharmacokinetic profile of ISIS 22023 following 50 mg/kg subcutaneous injection in mice. Plasma samples were analyzed at various time points using the oligonucleotide detection method of the present invention.
Detection of ISIS 22023 after injection in mice ISIS 22023 (50 mg/kg) was injected subcutaneously into mice and the plasma concentration was determined at various times post-injection by the method described in Example 1. […] The predicted and observed half lives corresponded very well.

“ISIS 2302: antisense oligonucleotide GCCCAAGCTGGCATCCGTCA (SEQ ID NO:2) (listed as DNA, chemistry not given here)”: the elimination half-life result is “very long”.
